Assay results: patent publication US7772228B2, “Method for treatment of bacterial infections with once or twice-weekly administered rifalazil” (priority 1998, dated 2010)
Read-outs that look alike come from different tables or passages of the source.

Columns and labels:
M. tuberculosis [1] = assay type: cell-based, Mycobacterium tuberculosis; conditions: comparison of MIC50 and MIC90, clinical isolates
[2] = Multiple-dose oral toxicology studies in rats; assay type: in vivo
Experimental: In chronic studies with dogs and rats, the no-observed-adverse-effect-level was 1000 mg/kg. […] Significant partitioning of drug-related radioactivity to the formed elements of the blood was observed. […] The urine contained a small amount (5.5%) of radioactivity.
Single-dose and multiple-dose oral toxicology studies were conducted in mice, rats, and dogs. In addition, to maximize systemic exposure, single-dose intravenous (IV) and intraperitoneal (IP) studies were conducted in rats and mice. Four-week and 13-week oral studies in dogs and rats and 26-week oral studies in rats included standard clinical measurements and physical and pathological evaluations.

[3] = Clinical trial 005, rifalazil concentration in plasma of tuberculosis patients; assay type: in vivo, human; conditions: for maximum concentration of the drug in plasma: six hours; for concentration at 3 h / concentration at 11 day / concentration at 15 day / concentration at 0 h / concentration at 2 h / concentration at 5 h / concentration at 9 h / concentration at 12 h / concentration at 24 h / concentration at 48 h / concentration at 72 h: human, plasma; for concentration at 3 h: three hours; for concentration at 11 day: Day 11; for concentration at 15 day: Day 15; for concentration at 0 h: Hour 0; for concentration at 2 h: Hour 2; for concentration at 5 h: Hour 5; for concentration at 9 h: Hour 9; for concentration at 12 h: Hour 12; for concentration at 24 h: Hour 24; for concentration at 48 h: Hour 48; for concentration at 72 h: Hour 72
Experimental: Definite diagnosis and evaluation of treatment efficacy requires direct examination of sputum for the presence of M. tuberculosis. The extent of M. tuberculosis infection is determined by number of bacteria able to form colonies and is expressed as colony forming units. When the number of colony forming units (CFU) is high, the infection is unhindered. When the CFU decreases, the number of active M. tuberculosis bacteria decreases. The CFU, typically expressed as Log10, have therefore important diagnostic and treatment evaluative value.
Table 21 summarizes the plasma concentrations data of rifalazil measured in patients that received rifalazil at zero hour. The data are separated into 2 groups and are identified as INH+10 mg rifalazil (Group 3) and INH+25 mg rifalazil (Group 4). The concentration of rifalazil in plasma is presented in ng/mL and are shown as a timecourse (hours and days) wherein values were determined at several times over the two weeks of the study.

M. tuberculosis [4] = conditions: cited from earlier work
[5] = 10 mg, INH + 10 mg KRM, read-out: Rifalazil Concentration in Plasma, Max
[6] = 10 mg, INH + 10 mg KRM, read-out: Rifalazil Concentration in Plasma, Med
[7] = 10 mg, INH + 10 mg KRM, read-out: Rifalazil Concentration in Plasma, Min
[8] = 25 mg, INH + 25 mg KRM, read-out: Rifalazil Concentration in Plasma, Max
[9] = 25 mg, INH + 25 mg KRM, read-out: Rifalazil Concentration in Plasma, Mean
[10] = 25 mg, INH + 25 mg KRM, read-out: Rifalazil Concentration in Plasma, Med
[11] = 25 mg, INH + 25 mg KRM, read-out: Rifalazil Concentration in Plasma, Min
[12] = INH + 10 mg KRM, read-out: Rifalazil Concentration in Plasma, Mean
[13] = INH + 10 mg KRM, read-out: Rifalazil Concentration in Plasma, Max
[14] = INH + 10 mg KRM, read-out: Rifalazil Concentration in Plasma, Med
[15] = INH + 10 mg KRM, read-out: Rifalazil Concentration in Plasma, Min
[16] = INH + 25 mg KRM, read-out: Rifalazil Concentration in Plasma, Max
[17] = INH + 25 mg KRM, read-out: Rifalazil Concentration in Plasma, Mean
[18] = INH + 25 mg KRM, read-out: Rifalazil Concentration in Plasma, Med
[19] = INH + 25 mg KRM, read-out: Rifalazil Concentration in Plasma, Min

With `CO[C@H]1/C=C/O[C@@]2(C)Oc3c(C)c(O)c4c(=O)c(c5oc6cc(N7CCN(CC(C)C)CC7)cc(O)c6nc-5c4c3C2=O)NC(=O)/C(C)=C\C=C\[C@H](C)[C@H](O)[C@@H](C)[C@@H](O)[C@@H](C)[C@H](OC(C)=O)[C@@H]1C` [Rifalazil, 3′-hydroxy-5′-(4-isobutyl-1-piperazinyl)benzoxasinorifamycin] the “fold greater activity than rifabutin” value (M. tuberculosis [1]) was 4 fold, the “fold greater activity than rifampin” value (M. tuberculosis [1]) was > 64 fold and the “doses with dose-related lymphocytic depletion in the spleens” value ([2]; 26-week study) was > 30 mg/kg/day. The no-observed-adverse-effect-level ([2]; chronic studies, rats) was 1000 mg/kg, the “doses at which hematological changes were noted” value ([2]; multiple-dose oral, rats) was > 30 mg/kg and the “maximum concentration of the drug in plasma” value ([3]; 10 mg rifalazil) was 12.68 ng/mL. For the same compound, the “maximum concentration of the drug in plasma” value ([3]; 25 mg rifalazil) was 28.47 ng/mL, the drug in plasma ([3]; 72 hours (3 days)) was “still measurable amount of drug in plasma” and the “Rifalazil Concentration in Plasma, Max” value ([3]; INH + 10 mg KRM, Day 4 M-0) was 0 ng/mL. For the same compound, the “Rifalazil Concentration in Plasma, Mean” value ([3]; INH + 10 mg KRM, Day 4 M-0) was 0 ng/mL, the “Rifalazil Concentration in Plasma, Med” value ([3]; INH + 10 mg KRM, Day 4 M-0) was 0 ng/mL and the “Rifalazil Concentration in Plasma, Min” value ([3]; INH + 10 mg KRM, Day 4 M-0) was 0 ng/mL. The “Rifalazil Concentration in Plasma, Max” value ([3]; INH + 10 mg KRM, Day 8 M-4) was 21.9 ng/mL, the “Rifalazil Concentration in Plasma, Mean” value ([3]; INH + 10 mg KRM, Day 8 M-4) was 18.31 ng/mL and the “Rifalazil Concentration in Plasma, Min” value ([3]; INH + 10 mg KRM, Day 8 M-4) was 9.7 ng/mL. For the same compound, the “Rifalazil Concentration in Plasma, Max” value ([3]; INH + 25 mg KRM, Day 4 M-0) was 0 ng/mL, the “Rifalazil Concentration in Plasma, Mean” value ([3]; INH + 25 mg KRM, Day 4 M-0) was 0 ng/mL and the “Rifalazil Concentration in Plasma, Med” value ([3]; INH + 25 mg KRM, Day 4 M-0) was 0 ng/mL. The “Rifalazil Concentration in Plasma, Min” value ([3]; INH + 25 mg KRM, Day 4 M-0) was 0 ng/mL, the “Rifalazil Concentration in Plasma, Max” value ([3]; INH + 25 mg KRM, Day 8 M-4) was 41.0 ng/mL and the “Rifalazil Concentration in Plasma, Mean” value ([3]; INH + 25 mg KRM, Day 8 M-4) was 29.02 ng/mL. The “Rifalazil Concentration in Plasma, Med” value ([3]; INH + 25 mg KRM, Day 8 M-4) was 28.5 ng/mL, the “Rifalazil Concentration in Plasma, Min” value ([3]; INH + 25 mg KRM, Day 8 M-4) was 11.7 ng/mL and the concentration at 3 h ([3]; 10 mg, 10 mg of rifalazil) was 9.7 ng/mL. It also gave a concentration at 11 day [3, 5] of 2.5 ng/mL, a concentration at 11 day [3, 6] of 1.4 ng/mL and a concentration at 11 day [3, 7] of 2 ng/mL. The concentration at 15 day [3, 5] was 0 ng/mL, the concentration at 15 day [3, 6] was 3 ng/mL and the concentration at 15 day [3, 7] was 0 ng/mL. It also gave a concentration at 3 h ([3]; 25 mg, 25 mg rifalazil) of 15.9 ng/mL, a concentration at 11 day [3, 8] of 9.1 ng/mL and a concentration at 11 day [3, 9] of 4.12 ng/mL. It also gave a concentration at 11 day [3, 10] of 3.3 ng/mL, a concentration at 11 day [3, 11] of 2.2 ng/mL and a concentration at 15 day [3, 8] of 3.4 ng/mL. It also gave a concentration at 15 day [3, 9] of 0.95 ng/mL, a concentration at 15 day [3, 10] of 0 ng/mL and a concentration at 15 day [3, 11] of 0 ng/mL. For the same compound, the concentration at 11 day [3, 12] was 2.4 ng/mL, the concentration at 15 day [3, 12] was 3 ng/mL and the concentration at 0 h [3, 13] was 0 ng/mL. For the same compound, the concentration at 0 h [3, 12] was 0 ng/mL, the concentration at 0 h [3, 14] was 3 ng/mL and the concentration at 0 h [3, 15] was 0 ng/mL. It also gave a concentration at 2 h [3, 13] of 20.3 ng/mL, a concentration at 2 h [3, 12] of 9.7 ng/mL and a concentration at 2 h [3, 14] of 9 ng/mL. It also gave a concentration at 2 h [3, 15] of 0 ng/mL, a concentration at 5 h [3, 13] of 22.7 ng/mL and a concentration at 5 h [3, 12] of 12.5 ng/mL. It also gave a concentration at 5 h [3, 14] of 11.9 ng/mL, a concentration at 5 h [3, 15] of 4.2 ng/mL and a concentration at 9 h [3, 13] of 19.2 ng/mL. The concentration at 9 h [3, 12] was 9.75 ng/mL, the concentration at 9 h [3, 14] was 10.3 ng/mL and the concentration at 9 h [3, 15] was 3 ng/mL. The concentration at 12 h [3, 13] was 11.9 ng/mL, the concentration at 12 h [3, 12] was 10.7 ng/mL and the concentration at 12 h [3, 14] was 11.4 ng/mL. It also gave a concentration at 12 h [3, 15] of 6.2 ng/mL, a concentration at 24 h [3, 13] of 5 ng/mL and a concentration at 24 h [3, 12] of 3.6 ng/mL. For the same compound, the concentration at 24 h [3, 14] was 3.55 ng/mL, the concentration at 24 h [3, 15] was 2.3 ng/mL and the concentration at 48 h [3, 13] was 2.5 ng/mL. It also gave a concentration at 48 h [3, 12] of 1.4 ng/mL, a concentration at 48 h [3, 14] of 2.5 ng/mL and a concentration at 48 h [3, 15] of 2.2 ng/mL. For the same compound, the concentration at 72 h [3, 13] was 2.2 ng/mL, the concentration at 72 h [3, 14] was 1 ng/mL and the concentration at 72 h [3, 15] was 0 ng/mL. The concentration at 0 h [3, 16] was 0 ng/mL, the concentration at 0 h [3, 17] was 0 ng/mL and the concentration at 0 h [3, 18] was 0 ng/mL. For the same compound, the concentration at 0 h [3, 19] was 0 ng/mL, the concentration at 2 h [3, 16] was 26.4 ng/mL and the concentration at 2 h [3, 17] was 15.3 ng/mL. The concentration at 2 h [3, 18] was 11.4 ng/mL, the concentration at 2 h [3, 19] was 2.3 ng/mL and the concentration at 5 h [3, 16] was 42.7 ng/mL. The concentration at 5 h [3, 17] was 25.5 ng/mL, the concentration at 5 h [3, 18] was 30.9 ng/mL and the concentration at 5 h [3, 19] was 5.5 ng/mL. It also gave a concentration at 9 h [3, 16] of 38.2 ng/mL, a concentration at 9 h [3, 17] of 21.6 ng/mL and a concentration at 9 h [3, 18] of 22.1 ng/mL. It also gave a concentration at 9 h [3, 19] of 4.2 ng/mL, a concentration at 12 h [3, 16] of 20.5 ng/mL and a concentration at 12 h [3, 17] of 16.3 ng/mL. The concentration at 12 h [3, 18] was 18.1 ng/mL, the concentration at 12 h [3, 19] was 11.1 ng/mL and the concentration at 24 h [3, 16] was 12.2 ng/mL. It also gave a concentration at 24 h [3, 17] of 7.72 ng/mL, a concentration at 24 h [3, 18] of 6.7 ng/mL and a concentration at 24 h [3, 19] of 4.3 ng/mL. For the same compound, the concentration at 48 h [3, 16] was 5.3 ng/mL, the concentration at 48 h [3, 17] was 2.15 ng/mL and the concentration at 48 h [3, 18] was 3.9 ng/mL. It also gave a concentration at 48 h [3, 19] of 0 ng/mL, a concentration at 72 h [3, 16] of 3.2 ng/mL and a concentration at 72 h [3, 17] of 2.15 ng/mL. For the same compound, the concentration at 72 h [3, 18] was 2.7 ng/mL, the concentration at 72 h [3, 19] was 0 ng/mL and the “lesions in the lung” value (M. tuberculosis [4]; 10 mg/kg six times a week) was “no lesions observed in the lung”. For the same compound, the “reduction of log CFU in lungs” value (M. tuberculosis [4]; 10 mg/kg six times a week) was “about 80%”, the “reduction of the bacteria” value (M. tuberculosis [4]; Twice-a-week or once-a-week administration) was “about 35%” and the “reduction in CFU” value (M. tuberculosis [4]; once-a-week administration of these very high dosages) was “about 42%”.
